Consider ten molecules from patent US7655629B2, “Peptides and their use for the treatment of HIV infections” (priority 2002, dated 2010).

As usually defined, the pIC50 is the negative decadic logarithm of the IC50, by convention in mol/L.

The assay has as its system X4-tropic HIV-1 NL4-3. Particulars: read-out: IC50 NL4-3; P4-CCR5 cells, HIV-1 NL4-3, peptide 2 h before infection, readout three days after infection. An excerpt: These cells contain the β-galactosidase reporter gene under the control of the HIV-1 promoter. Thus, activation of the β-galactosidase reporter gene allows to measure the efficiency of HIV-1 infection and thus to quantitate the potency of HIV-1 inhibitors (Detheux M. et al., 2000; Journal of Experimental Medicine 192, 1501-1508; Münch et al., 2002; Antimicrobial Agents and Chemotherapy 46, 982-990).
To perform a typical infection assay, P4-CCR5 cells (Charneau et al., 1994; Journal of Molecular Biology 241, 651-662; Charneau et al., Virology. 1994 205, 247-53) were kept in RPMI 1640 medium supplemented with 10 volume % FCS. This cell line coexpresses CD4 and both HIV-1 coreceptors CCR5 and CXCR4 and contains the β-galactosidase gene under the control of the HIV-1 promoter. Virus stocks were generated by the calcium coprecipitation method as described (Detheux et al., J Exp Med. 192:1501-8; 2000), and the p24 antigen levels were quantitated with an HIV p24 ELISA kit obtained through the NIH AIDS Reagent Program. Cells were seeded in flat-bottomed 96-well dishes, cultured overnight, and incubated with the different doses of peptide for 2 h before infection with virus containing 1 ng of p24 antigen in a total volume of […] of medium. After overnight incubation, cells were washed twice and cultivated in fresh culture medium without inhibitory peptide. Three days after infection the cells were lysed, and infectivity was quantitated using the Galacto-Light Plus™ chemiluminescence reporter assay kit (Tropix, Bedford, Mass.) as recommended by the manufacturer. All infections were performed in quintuplicate.

pIC50: −log10 of the molar value. Non-standard residues stand in square brackets, D forms with d. Residues, ends and D or L forms follow the SMILES beside them. Tic = O=C(O)[C@@H]1Cc2ccccc2CN1; dTic = O=C(O)[C@H]1Cc2ccccc2CN1

Regarding `CC[C@H](C)[C@H](NC(=O)[C@H](C)NC(=O)[C@H](CCC(=O)O)NC(=O)[C@@H](N)CC(C)C)C(=O)N1CCC[C@H]1C(=O)N[C@@H](CCSC)C(=O)N[C@@H](CO)C(=O)N[C@H](C(=O)N1CCC[C@H]1C(=O)N1CCC[C@@H]1C(=O)N[C@@H](CCC(=O)O)C(=O)N[C@@H](Cc1ccccc1)C(=O)N[C@@H](CC(C)C)C(=O)N[C@@H](Cc1ccccc1)C(=O)NCC(=O)N[C@@H](CCCCN)C(=O)N1CCC[C@H]1C(=O)N[C@@H](C)C(=O)N[C@@H](Cc1ccccc1)C(=O)N[C@H](C(=O)N[C@@H](Cc1ccccc1)C(=O)O)C(C)C)[C@@H](C)CC` [VIR-376, LEAIPMSIPpEFLFGKPAFVF] (H-LEAIPMSIP[dP]EFLFGKPAFVF-OH), the negative-log IC50 (pIC50) was 6.25.
As for `CC[C@H](C)[C@H](NC(=O)[C@H](C)NC(=O)[C@H](CCC(=O)O)NC(=O)[C@@H](N)CC(C)C)C(=O)N1CCC[C@H]1C(=O)N[C@@H](CCSC)C(=O)N[C@@H](CO)C(=O)N[C@H](C(=O)N1CCC[C@H]1C(=O)N1CCC[C@@H]1C(=O)N[C@@H](CCC(=O)O)C(=O)N[C@@H](Cc1ccccc1)C(=O)N[C@@H](CC(C)C)C(=O)N[C@@H](Cc1ccccc1)C(=O)NCC(=O)N[C@@H](CCCCN)C(=O)N1CCC[C@H]1C(=O)NCC(=O)N[C@@H](Cc1ccccc1)C(=O)N[C@H](C(=O)N[C@@H](Cc1ccccc1)C(=O)O)C(C)C)[C@@H](C)CC` [VIR-377, LEAIPMSIPpEFLFGKPGFVF] (H-LEAIPMSIP[dP]EFLFGKPGFVF-OH), the figure is 6.31.
The value for `CC[C@H](C)[C@H](NC(=O)[C@H](C)NC(=O)[C@H](CCC(=O)O)NC(=O)[C@@H](N)CC(C)C)C(=O)N1CCC[C@H]1C(=O)N[C@@H](CCSC)C(=O)N[C@@H](CO)C(=O)N[C@H](C(=O)N1CCC[C@H]1C(=O)N1CCC[C@@H]1C(=O)N[C@@H](CCC(=O)O)C(=O)N[C@@H](Cc1ccccc1)C(=O)N[C@@H](CC(C)C)C(=O)N[C@@H](Cc1ccccc1)C(=O)NCC(=O)N[C@@H](CCCCN)C(=O)N1CCC[C@H]1C(=O)N[C@@H](Cc1ccccc1)C(=O)N[C@@H](Cc1ccccc1)C(=O)N[C@H](C(=O)N[C@@H](Cc1ccccc1)C(=O)O)C(C)C)[C@@H](C)CC` [VIR-380, LEAIPMSIPpEFLFGKPFFVF] (H-LEAIPMSIP[dP]EFLFGKPFFVF-OH) was 6.27; that for `CC[C@H](C)[C@H](NC(=O)[C@H](C)NC(=O)[C@H](CCC(=O)O)NC(=O)[C@@H](N)CC(C)C)C(=O)N1CCC[C@H]1C(=O)N[C@@H](CCSC)C(=O)N[C@@H](CO)C(=O)N[C@H](C(=O)N1CCC[C@H]1C(=O)N1CCC[C@@H]1C(=O)N[C@@H](CCC(=O)O)C(=O)N[C@@H](Cc1ccccc1)C(=O)N[C@@H](CC(C)C)C(=O)N[C@@H](Cc1ccccc1)C(=O)NCC(=O)N[C@@H](CCCCN)C(=O)N1CCC[C@H]1C(=O)N[C@@H](CCC(=O)O)C(=O)N[C@@H](Cc1ccccc1)C(=O)N[C@H](C(=O)N[C@@H](Cc1ccccc1)C(=O)O)C(C)C)[C@@H](C)CC` [VIR-384, LEAIPMSIPpEFLFGKPEFVF] (H-LEAIPMSIP[dP]EFLFGKPEFVF-OH) was 6.21; that for `CC[C@H](C)[C@H](NC(=O)[C@H](C)NC(=O)[C@H](CCC(=O)O)NC(=O)[C@@H](N)CC(C)C)C(=O)N1CCC[C@H]1C(=O)N[C@@H](CCSC)C(=O)N[C@@H](CO)C(=O)N[C@@H](C)C(=O)N1CCC[C@H]1C(=O)N1CCC[C@@H]1C(=O)N[C@@H](CCC(=O)O)C(=O)N[C@@H](Cc1ccccc1)C(=O)N[C@@H](CC(C)C)C(=O)N[C@@H](Cc1ccccc1)C(=O)NCC(=O)N[C@@H](CCCCN)C(=O)N1CCC[C@H]1C(=O)N[C@@H](Cc1ccccc1)C(=O)N[C@H](C(=O)N[C@@H](Cc1ccccc1)C(=O)O)C(C)C` [VIR-396, LEAIPMSAPpEFLFGKPFVF] (H-LEAIPMSAP[dP]EFLFGKPFVF-OH) was 6.20.
For the molecule `CC[C@H](C)[C@H](NC(=O)[C@H](C)NC(=O)[C@H](CCC(=O)O)NC(=O)[C@@H](N)CC(C)C)C(=O)N1CCC[C@H]1C(=O)N[C@@H](CCSC)C(=O)N[C@@H](CO)C(=O)N[C@@H](Cc1ccccc1)C(=O)N1CCC[C@H]1C(=O)N1CCC[C@@H]1C(=O)N[C@@H](CCC(=O)O)C(=O)N[C@@H](Cc1ccccc1)C(=O)N[C@@H](CC(C)C)C(=O)N[C@@H](Cc1ccccc1)C(=O)NCC(=O)N[C@@H](CCCCN)C(=O)N1CCC[C@H]1C(=O)N[C@@H](Cc1ccccc1)C(=O)N[C@H](C(=O)N[C@@H](Cc1ccccc1)C(=O)O)C(C)C` [VIR-400, LEAIPMSFPpEFLFGKPFVF] (H-LEAIPMSFP[dP]EFLFGKPFVF-OH), the pIC50 is 6.23.
For the molecule `CC[C@H](C)[C@H](NC(=O)[C@H](C)NC(=O)[C@H](CCC(=O)O)NC(=O)[C@@H](N)CC(C)C)C(=O)N1CCC[C@H]1C(=O)N[C@@H](CCSC)C(=O)NCC(=O)N[C@H](C(=O)N1CCC[C@H]1C(=O)N1CCC[C@@H]1C(=O)N[C@@H](CCC(=O)O)C(=O)N[C@@H](Cc1ccccc1)C(=O)N[C@@H](CC(C)C)C(=O)N[C@@H](Cc1ccccc1)C(=O)NCC(=O)N[C@@H](CCCCN)C(=O)N1CCC[C@H]1C(=O)N[C@@H](Cc1ccccc1)C(=O)N[C@H](C(=O)N[C@@H](Cc1ccccc1)C(=O)O)C(C)C)[C@@H](C)CC` [VIR-416, LEAIPMGIPpEFLFGKPFVF] (H-LEAIPMGIP[dP]EFLFGKPFVF-OH), the pIC50 was 6.43.
Consider `CC[C@H](C)[C@H](NC(=O)[C@H](CCCCN)NC(=O)[C@H](CCC(=O)O)NC(=O)[C@@H](N)CC(C)C)C(=O)N1CCC[C@H]1C(=O)N[C@@H](CCSC)C(=O)NCC(=O)N[C@H](C(=O)N1CCC[C@H]1C(=O)N1CCC[C@@H]1C(=O)N[C@@H](CCC(=O)O)C(=O)N[C@@H](Cc1ccccc1)C(=O)N[C@@H](CC(C)C)C(=O)N[C@@H](Cc1ccccc1)C(=O)NCC(=O)N[C@@H](CCCCN)C(=O)N1CCC[C@H]1C(=O)N[C@@H](Cc1ccccc1)C(=O)N[C@H](C(=O)N[C@@H](Cc1ccccc1)C(=O)O)C(C)C)[C@@H](C)CC` [VIR-418, LEKIPMGIPpEFLFGKPFVF] (H-LEKIPMGIP[dP]EFLFGKPFVF-OH), for which the pIC50 is 6.30.
As for `CC[C@H](C)[C@H](NC(=O)[C@@H]1CCCN1C(=O)[C@@H](NC(=O)[C@H](C)NC(=O)[C@H](CCC(=O)O)NC(=O)[C@@H](N)CC(C)C)[C@@H](C)CC)C(=O)N[C@@H](CO)C(=O)N[C@H](C(=O)N1CCC[C@H]1C(=O)N1CCC[C@@H]1C(=O)N[C@@H](CCC(=O)O)C(=O)N[C@H](C(=O)N1Cc2ccccc2C[C@@H]1C(=O)N[C@@H](Cc1ccccc1)C(=O)N[C@@H](CC(N)=O)C(=O)N[C@@H](CCCCN)C(=O)N1CCC[C@H]1C(=O)N[C@@H](Cc1ccccc1)C(=O)N[C@H](C(=O)N[C@@H](Cc1ccccc1)C(=O)O)C(C)C)C(C)C)[C@@H](C)CC` [VIR-445, LEAIPISIPpEV(D-Tic)FNKPFVF] (H-LEAIPISIP[dP]EV[dTic]FNKPFVF-OH), the figure is 6.65.
As for `CC[C@H](C)[C@H](NC(=O)[C@@H]1CCCN1C(=O)[C@@H](NC(=O)[C@H](C)NC(=O)[C@H](CCC(=O)O)NC(=O)[C@@H](N)CC(C)C)[C@@H](C)CC)C(=O)N[C@@H](CO)C(=O)N[C@H](C(=O)N1CCC[C@H]1C(=O)N1CCC[C@@H]1C(=O)N[C@@H](CCC(=O)O)C(=O)N[C@H](C(=O)N[C@@H](C)C(=O)N[C@@H](Cc1ccccc1)C(=O)N[C@@H](CC(N)=O)C(=O)N[C@@H](CCCCN)C(=O)N1Cc2ccccc2C[C@H]1C(=O)N[C@@H](Cc1ccccc1)C(=O)N[C@H](C(=O)N[C@@H](Cc1ccccc1)C(=O)O)C(C)C)C(C)C)[C@@H](C)CC` [VIR-447, LEAIPISIPpEVAFNK(L-Tic)FVF] (H-LEAIPISIP[dP]EVAFNK[Tic]FVF-OH), the figure is 6.21.
